# From patent US20080269293A1, “PYRAZOLE DERIVATIVES AS ANTI-PLATELET AND ANTI-THROMBOTIC AGENTS” (Pfizer Inc., priority 2006, published 2008)
# Biological target: T1, platelet P2Y1 receptor (Homo sapiens, UniProt P47900)
# T1 construct: expressed in transfected cells
# Assay: P2Y1 receptor binding assay ([β-33P]-2-thiomethyl ADP)
# Conditions: binding of 0.3 nM [β-33P]-2-thiomethyl ADP, hP2Y1 expressing 132N1 cell membrane, 25° C., 60 minutes
# Protocol: Conducting P2Y, Receptor Binding Assay
# [β−^33P]-2-thiomethyl ADP (2100 Ci/mmol) was purchased from PerkinElmer, Protease Inhibitors Complete, EDTA-free, was purchased from Roche, and ADP (Adenosine diphosphate), MRS2179, and 2-thiomethy ADP (2-Me-S-ADP) were purchased from Sigma Chemical Co.
# Binding of 0.3 nM [β-^33P]-2-thiomethyl ADP to platelet P2Y1 receptor in 132N1 cell membrane was carried out in triplicate at 25° C. with 96 well plate (Corning, 3365). Nonspecific binding was defined as binding in the presence of 1 μM of 2-Me-S-ADP. One […] of dimethyl sulfoxide (DMSO) or 1 μL of DMSO (Sigma-Aldrich, 472301) containing a test compound diluted to final assay concentrations of 0.1 nM to 1 mM were placed into each well of a Corning 96-well plate. A volume of 60 μL of buffer: 50 mM Tris pH 7.5 (Sigma, T-2194), 1 mM EDTA (Gibco, 15575-038) and 100 mM NaCl (Gibco, 200740-011) containing 0.3 nM [β-^33P]-2-thiomethyl ADP 40 μL of hP2Y1 expressing 132N1 cell membrane prep was added to each well. After incubation on shaker for 60 minutes, The contents of the wells are filtered and washed 8 times with Tomtec Cell Harvester through UniFilter 96, GF/B plates (PerkinElmer, 6005177) Forty five microliters […] Scintillation cocktail (Ultima-Flo-M) was added into each well and plates counted on a Trilux Microbeta Counter.
# • 1. Add 1 μL DMSO or compounds into the wells according to the protocol. • 2. Add 60 μL incubation buffer with [β-^33P]-2-thiomethyl ADP into each well. • 3. Add 40 μL hP2Y1 expressing 132N1 cell membrance prep. Incubate 60 minutes on top of the shaker (IKA Shutter MTS4). • 4. Filter and wash 8× with Tomtec Cell Harvester through UniFilter GF/B plates (PerkinElmer, 6005177). • 5. Add 45 μL scintillation cocktail into each well and plates counted on a Trilux Microbeta Counter.
# T1 sequence (P47900 whole entry): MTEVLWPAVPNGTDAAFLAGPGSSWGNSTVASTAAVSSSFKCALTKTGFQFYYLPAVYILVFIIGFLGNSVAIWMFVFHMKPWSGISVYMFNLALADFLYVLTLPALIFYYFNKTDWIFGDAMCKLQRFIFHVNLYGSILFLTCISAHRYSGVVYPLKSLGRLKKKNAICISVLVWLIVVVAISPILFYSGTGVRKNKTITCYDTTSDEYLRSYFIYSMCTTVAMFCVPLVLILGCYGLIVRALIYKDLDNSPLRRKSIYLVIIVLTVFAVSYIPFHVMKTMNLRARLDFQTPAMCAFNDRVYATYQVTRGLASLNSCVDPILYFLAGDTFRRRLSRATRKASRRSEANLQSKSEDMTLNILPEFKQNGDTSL
row,Compound,IC50 [nM]
1,1-Phenyl-5-{2-[3-(4-trifluoromethoxy-phenyl)-ureido]-phenoxy}-1H-pyrazole-3-carboxylic acid methyl ester [Example 26],> 10000
2,"Cc1cc(Oc2ccccc2NC(=O)Nc2ccc(OC(F)(F)F)cc2)n(-c2ccccc2C)n1 [Example 1, 1-[2-(5-Methyl-2-o-tolyl-2H-pyrazol-3-yloxy)-phenyl]-3-(4-trifluoromethoxy-phenyl)-urea]",152
3,"Cc1cc(Oc2ccccc2NC(=O)Nc2ccc(OC(F)(F)F)cc2)n(-c2ccccc2Cl)n1 [Example 2, 1-{2-[2-(2-Chloro-phenyl)-5-methyl-2H-pyrazol-3-yloxy]-phenyl}-3-(4-trifluoromethoxy-phenyl)-urea]",89
4,CCc1ccccc1-n1nc(C)cc1Oc1ccccc1NC(=O)Nc1ccc(OC(F)(F)F)cc1 [Example 3],48
5,Cc1cc(Oc2ccccc2NC(=O)Nc2ccc(OC(F)(F)F)cc2)n(-c2cccc(Cl)c2Cl)n1 [Example 4],89
6,Cc1cccc(-n2nc(C)cc2Oc2ccccc2NC(=O)Nc2ccc(OC(F)(F)F)cc2)c1 [Example 5],459
7,Cc1cc(Oc2ccccc2NC(=O)Nc2ccc(C(C)(C)C)cc2)n(-c2ccccc2Cl)n1 [Example 6],95
8,Cc1cc(Oc2ccccc2NC(=O)Nc2ccc(OC(F)(F)F)cc2)n(-c2cccc(Cl)c2)n1 [Example 7],122
9,Cc1cc(Oc2ccccc2NC(=O)Nc2ccc(OC(F)(F)F)cc2)n(-c2ccccc2C(F)(F)F)n1 [Example 8],128
10,Cc1cc(Oc2ccccc2NC(=O)Nc2ccc(OC(F)(F)F)cc2)n(-c2ccccc2F)n1 [Example 9],253
11,Cc1ccc(-n2nc(C)cc2Oc2ccccc2NC(=O)Nc2ccc(OC(F)(F)F)cc2)cc1 [Example 10],188
12,COc1ccccc1-n1nc(C)cc1Oc1ccccc1NC(=O)Nc1ccc(OC(F)(F)F)cc1 [Example 11],991
13,Cc1cc(Oc2ccccc2NC(=O)Nc2ccc(C(C)(C)C)cc2)n(-c2ccccc2)n1 [Example 12],207
14,Cc1cc(Oc2ccccc2NC(=O)Nc2ccc(OC(F)(F)F)cc2)n(-c2ccc(Cl)cc2)n1 [Example 13],246
15,Cc1cc(Oc2ccccc2NC(=O)Nc2ccc(OC(F)(F)F)cc2)n(-c2ccc(F)cc2F)n1 [Example 14],133
16,Cc1cc(Oc2ccccc2NC(=O)Nc2ccc(OC(F)(F)F)cc2)n(-c2ccc(F)cc2)n1 [Example 15],283
17,Cc1cc(Oc2ccccc2NC(=O)Nc2ccc(OC(F)(F)F)cc2)n(-c2cccc(F)c2)n1 [Example 17],307
18,COc1ccc(-n2nc(C)cc2Oc2ccccc2NC(=O)Nc2ccc(OC(F)(F)F)cc2)cc1 [Example 18],731
19,Cc1cc(Oc2ccccc2NC(=O)Nc2ccc(OC(F)(F)F)cc2)n(-c2c(Cl)cccc2Cl)n1 [Example 19],142
20,Cc1cc(Oc2ccccc2NC(=O)Nc2ccc(OC(F)(F)F)cc2)n(-c2ccc(Cl)cc2Cl)n1 [Example 20],150
21,"Cc1cc(Oc2ncccc2NC(=O)Nc2ccc(C(C)(C)C)cc2)n(-c2ccccc2)n1 [Example 21, 1-(4-tert-Butyl-phenyl)-3-[2-(5-methyl-2-phenyl-2H-pyrazol-3-yloxy)-pyridin-3-yl]-urea]",272
22,"Cc1cc(Oc2ncccc2NC(=O)Nc2ccc(OC(F)(F)F)cc2)n(-c2ccccc2Cl)n1 [Example 22, 1-{2-[2-(2-Chloro-phenyl)-5-methyl-2H-pyrazol-3-yloxy]-pyridin-3-yl}-3-(4-trifluoromethoxy-phenyl)-urea]",139
23,"Cc1cc(Oc2ccncc2NC(=O)Nc2ccc(OC(F)(F)F)cc2)n(-c2ccccc2)n1 [Example 23, 1-[4-(5-Methyl-2-phenyl-2H-pyrazol-3-yloxy)-pyridin-3-yl]-3-(4-trifluoromethoxy-phenyl)-urea]",8990
24,"O=C(Nc1ccc(OC(F)(F)F)cc1)Nc1ccccc1Oc1ccnn1-c1ccccc1 [Example 24, 1-[2-(2-Phenyl-2H-pyrazol-3-yloxy)-phenyl]-3-(4-trifluoromethoxy-phenyl)-urea]",306

row,Compound,IC50 [nM]
1,"O=C(Nc1ccc(OC(F)(F)F)cc1)Nc1ccccc1Oc1ccnn1-c1ccccc1Cl [Example 25, 1-{2-[2-(2-Chloro-phenyl)-2H-pyrazol-3-yloxy]-phenyl}-3-(4-trifluoromethoxy-phenyl)-urea]",268
2,"CC(C)(C)c1ccc(NC(=O)Nc2ccccc2Oc2cc(C(=O)O)nn2-c2ccccc2)cc1 [Example 27, 5-{2-[3-(4-tert-Butyl-phenyl)-ureido]-phenoxy}-1-phenyl-1H-pyrazole-3-carboxylic acid]",7220
3,"CCc1cc(Oc2ccccc2NC(=O)Nc2ccc(OC(F)(F)F)cc2)n(-c2ccccc2)n1 [Example 28, 1-[2-(5-Ethyl-2-phenyl-2H-pyrazol-3-yloxy)-phenyl]-3-(4-trifluoromethoxy-phenyl)-urea]",> 10000
4,"CC(C)c1cc(Oc2ccccc2NC(=O)Nc2ccc(OC(F)(F)F)cc2)n(-c2ccccc2)n1 [Example 29, 1-[2-(5-Isopropyl-2-phenyl-2H-pyrazol-3-yloxy)-phenyl]-3-(4-trifluoromethoxy-phenyl)-urea]",> 10000
5,Cc1cc(Oc2cc(C)c(F)cc2NC(=O)Nc2ccc(OC(F)(F)F)cc2)n(-c2ccccc2)n1 [Example 30],1240
6,Cc1cc(Oc2ccc(C#N)cc2NC(=O)Nc2ccc(OC(F)(F)F)cc2)n(-c2ccccc2)n1 [Example 32],> 10000
7,COc1cccc(Oc2cc(C)nn2-c2ccccc2)c1NC(=O)Nc1ccc(OC(F)(F)F)cc1 [Example 33],> 10000
8,Cc1cc(Oc2ccccc2NC(=O)Nc2cc(F)ccc2F)n(-c2ccccc2)n1 [Example 34],800
9,Cc1cc(Oc2ccccc2NC(=O)Nc2cccc(C(F)(F)F)c2)n(-c2ccccc2)n1 [Example 36],1300
10,Cc1cc(Oc2ccccc2NC(=O)Nc2cccc(F)c2)n(-c2ccccc2)n1 [Example 38],1910
11,CSc1ccc(NC(=O)Nc2ccccc2Oc2cc(C)nn2-c2ccccc2)cc1 [Example 39],2220
12,CCOc1ccc(NC(=O)Nc2ccccc2Oc2cc(C)nn2-c2ccccc2)cc1 [Example 41],5060
13,COc1ccc(NC(=O)Nc2ccccc2Oc2cc(C)nn2-c2ccccc2)cc1Cl [Example 42],6980
14,Cc1cc(C)cc(NC(=O)Nc2ccccc2Oc2cc(C)nn2-c2ccccc2)c1 [Example 43],7560
15,Cc1cc(Oc2ccccc2NC(=O)Nc2ccc(F)c(F)c2F)n(-c2ccccc2)n1 [Example 45],8850
16,Cc1cc(Oc2ccccc2NC(=O)Nc2cccc(C#N)c2)n(-c2ccccc2)n1 [Example 46],> 10000
17,Cc1cc(Oc2ccccc2NC(=O)Nc2cc(F)ccc2C)n(-c2ccccc2)n1 [Example 48],> 10000
18,COc1cc(NC(=O)Nc2ccccc2Oc2cc(C)nn2-c2ccccc2)cc(OC)c1OC [Example 57],> 10000
19,Cc1cc(Oc2ccccc2NC(=O)Nc2c(C)cccc2C)n(-c2ccccc2)n1 [Example 58],> 10000
20,Cc1cc(Oc2ccccc2NC(=O)Nc2c(Cl)cccc2C(F)(F)F)n(-c2ccccc2)n1 [Example 59],> 10000
21,Cc1ccc(NC(=O)Nc2ccccc2Oc2cc(C)nn2-c2ccccc2)c(C)c1 [Example 60],> 10000
22,Cc1cc(Oc2ccccc2NC(=O)Nc2c(Cl)cccc2Cl)n(-c2ccccc2)n1 [Example 61],> 10000
23,Cc1cc(Oc2ccccc2NC(=O)Nc2c(C)cccc2Cl)n(-c2ccccc2)n1 [Example 62],> 10000
